Two molecules from patent US20260199464A1, “COMPOSITIONS AND METHODS FOR ENHANCING CAR-T CELL PERFORMANCE AND FOR CANCER IMMUNOTHERAPY” (The Regents of the University of California, priority 2022, published 2026) can be followed below.

In series [1] the test system is CD19 CAR T cell. As to the kind of experiment: ZAA combined with CD19 CAR T cell treatment of established solid tumors (FIG. 9). It is filed as in vivo, mice. An excerpt: FIG. 9 graphically illustrates data showing that ZAA can be combined with CAR T cell treatment of established solid tumors to increase the ability of CAR T cells to accumulate intratumorally. Tumor-bearing mice received tumor-specific CAR T cells in combination with Zaragozic Acid A. Tumor cells contained the surface protein CD19, which is recognized by the CAR anti-CD19 on the CD8 T cell (CD19 CAR T cell).

Series [2] in a line: Dependence of antitumor actions of ZAA on the immune system (FIG. 6). It is filed as in vivo.
The test system of series [3] is B16-F10 tumors. As to the kind of experiment: ZAA combined with anti-PD1 antibody, B16-F10 tumors implanted s.c. in B6 mice (FIG. 7, FIG. 8). It is filed as in vivo. Here is the method: FIG. 7 graphically illustrates data showing that tumor Growth Curves in B16-F10 tumors implanted subcutaneously (s.c.) in B6 mice. Tumor-bearing mice were treated with a combination of Zaragozic Acid A and anti-PD1 antibody.
FIG. 8 graphically illustrates data showing that ZAA synergizes with anti-PD1 therapy. Tumor-bearing mice were treated with a combination of Zaragozic Acid A and anti-PD1 antibody.
At day 6 after tumor injection, the mice were randomized and treated every other day with ZAA (Santa Cruz Biotechnology) or vehicle control by alternating intravenous ([…]) and intraperitoneal ([…]) injections until day 16. For combination therapy with anti-PD1 (programmed cell death protein 1 (PD-1)) antibody, ZAA was administered with the same schedule, and three consecutive treatments of anti-PD1 (InVivoMab anti-mouse PD-1 (CD279), BioXCell, BE0033-2) at 200 μg/mouse were delivered IP on days 9, 10, and 11 after tumor injection. Isotype control for Syrian IgG was used (InVivoMAb polyclonal Syrian hamster IgG, BioXCell). For CD8-depleting experiments in combination with ZAA, anti-CD8a Ab (2.43 BioXCell) was administered intraperitoneally at a dose of 200 μg/mouse starting 2 days prior to tumor implantation for three consecutive days (−2, −1, 0), followed by 2 additional doses of 100 μg/mouse on days 4 and 8, and ZAA treatment scheduled was started at day 4 after tumor implantation. Isotype control for Rat IgG2 was used (InVivoMAb rat IgG2a isotype control, anti-trinitrophenol, BioXCell).

Series [4] deals with B16-GP33-41 melanoma tumors. As to the kind of experiment: ZAA combined with anti-PD-1 in B16-GP33-41 melanoma tumors. It is filed as in vivo, mice. The following applies: ZAA combined with anti-PD-1 treatment. The source says:
(§1) For adoptive therapy experiments, 5×10^5 B16-GP33-41 cells or MC38-GP33-41, which were verified Mycoplasma negative by PCR, and authenticated by in vitro killing assays, were transplanted subcutaneously into the right flank of wild-type B6 mice. After tumors became palpable, 7-8 days after transplantation, in vitro activated and expanded P14 CD8 T cells were transferred intravenously. For comparison of TIL accumulation in a mixed transfer setting, naive P14 CD8 T cells were activated, transduced and expanded with 50 U/mL of hIL-2 for 2-3 days; cells transduced with control constructs (Cd19 shRNAmir) or experimental constructs (Srebf2 shRNAmir) were mixed 1:1 and 1×10^6 P14 cells were transferred intravenously. For efficacy studies, transduced cells were expanded for 5-6 days; transduced cells were then sorted, and 1×10^6-2.5×10^6 cells were transferred intravenously into mice with established MC38-GP33-41 or B16-GP33-41 tumors. Tumors were monitored daily, and mice with ulcerated tumors or tumors exceeding 400 mm^2 were euthanized, in accordance with Univ. Calif. San Diego (UCSD) Institutional Animal Care and Use Committee (IACUC).
At day 6 after tumor injection, the mice were randomized and treated every other day with ZAA (Santa Cruz Biotechnology) or vehicle control by alternating intravenous ([…]) and intraperitoneal ([…]) injections until day 16. […]

The test system of series [5] is MC38-GP33-41 tumors. The series can be described thus: ZAA treatment of mice implanted with MC38-GP33-41 tumors, with or without CD8 T cell depletion. It is filed as in vivo.
Text: as §1
At day 6 after tumor injection, the mice were randomized and treated every other day with ZAA (Santa Cruz Biotechnology) or vehicle control by alternating intravenous ([…]) and intraperitoneal ([…]) injections until day 16. For combination therapy with anti-PD1 (programmed cell death protein 1 (PD-1)) antibody, ZAA was administered with the same schedule, and three consecutive treatments of anti-PD1 (InVivoMab anti-mouse PD-1 (CD279), BioXCell, BE0033-2) at 200 μg/mouse were delivered IP on days 9, 10, and 11 after tumor injection. Isotype control for Syrian IgG was used (InVivoMAb polyclonal Syrian hamster IgG, BioXCell). […]

For series [6], the system named is P14 CD8 T cells. It is filed as in vivo, mice.
The mark [7] stands for this setting: combination of Zaragozic Acid A and anti-PD1 antibody, B16-F10 s.c.
Where [8] appears, read: ZAA vs vehicle, MC38-GP33-41 tumors.

For the molecule `C=C(CCC12O[C@H](C(=O)O)[C@@](O)(C(=O)O)C(C(=O)O)(O1)[C@H](OC(=O)/C=C/[C@@H](C)C[C@@H](C)CC)[C@H]2O)[C@@H](OC(C)=O)[C@H](C)Cc1ccccc1` (stereo partly shown) [ZAA, zaragozic acid A], the “interaction with CD19 CAR T cell therapy” value in series [1] (FIG. 9) was “synergizes”. In series [1] (tumor-specific CD19 CAR T cells in combination with ZAA, CD19-bearing tumor cells), the “ability of CAR T cells to accumulate intratumorally” value is recorded as “increase”. For the same molecule, the “antitumor actions, dependence on the immune system” value in series [2] is “depend on the immune system”. Also, in series [3] (FIG. 8, independent tumor growth curves from FIG. 7), the “interaction with anti-PD1 therapy” value was “synergizes”. Further, in series [3] (setting [7]), the “treatment of established tumors, efficacy of the combination” value was “effectively” and the “treatment of established tumors, safety of the combination” value is “safely”. Also, the “control of B16-GP33-41 melanoma tumors” value in series [4] is “greater control”. In addition, the “dependence of the antitumor effect on CD8 T cells” value in series [5] (ZAA in combination with CD8 T cell depletion) is reported as “CD8-dependent”. Moreover, in series [5] (setting [8]), the survival of mice result is “improved” and the tumor growth result is recorded as “reduced”.

As to `CC[C@H](C)C(=O)O[C@H]1C[C@@H](C)C=C2C=C[C@H](C)[C@H](CC[C@@H]3C[C@@H](O)CC(=O)O3)[C@H]21` [lovastatin], the “accumulation of P14 CD8 T cells responding to LCMV in the SI” value in series [6] (day 7 of infection, compared to the control group (vehicle)) was “impaired”. Moreover, in series [6] (day 21 after LCMV infection), the “SI TRM” value is reported as “sustained loss” and the “accumulation of memory T cells in the spleen” value is listed as “impaired accumulation”.
